In the supplement of paper PMC11208160:

assay: recombinant barcode read abundance after kanamycin selection (control-corrected) (log10(CPM+1)); higher = more efficient recombination; sequences stand for … in AGTGCAGAGAAAATCGGCCAGTTTTCTCTGCCTGCAGTCCGCATGCCGT…AGATTTATGCAGCGGACTGCCTTTCTCCCAAAGTGATAAACCGGACAGTATCATGGACCGGTTTTCCCGGTAATCCGTATTTGCAAGGTTGGTTTCACT; site = the 11-nt target
Method in brief: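 The screen was pooled in E. coli and paired targets with IS621 bridge RNA target-binding loops. Recombination efficiency is taken from barcode counts per million at recombinant junctions, averaged and adjusted against the control. Values, in the form log10(CPM+1), come from duplicate plating on chloramphenicol/ampicillin LB agar or on chloramphenicol/ampicillin/kanamycin with 0.1 mM IPTG.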
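Note: IS621 recombinase and bridge RNA in Escherichia coli cells.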

Row | Sequence | recombinant barcode read abundance (log10)
1 | CCATCTCCTTGGGTTCTAACCTGTTGCCT (site TCATCTCCTAG) | 0.0439
2 | CCGAAGCCTTGGGTTCTAACCTGTTGCCT (site CCGAAGCCTAG) | 1.01
3 | CCGAAGCCTTGGGTTCTAACCTGTTGCCT (site CCGCAGCCTAG) | 0.256
4 | CCGAAGCCTTGGGTTCTAACCTGTTGCCT (site CCGGAGCCTAG) | 0.144
5 | CCGAAGCCTTGGGTTCTAACCTGTTGCCT (site CCGTAGCCTAG) | 0.143
6 | CCGAATGCTTGGGTTCTAACCTGTTGCCT (site CCGAATGCTAG) | 0.188
7 | CCGAATGCTTGGGTTCTAACCTGTTGCCT (site CCGCATGCTAG) | 0.0438
8 | CCGAATGCTTGGGTTCTAACCTGTTGCCT (site CCGGATGCTAG) | 0.144
9 | CCGAATGCTTGGGTTCTAACCTGTTGCCT (site CCGTATGCTAG) | 0.155
10 | CCGATCACTTGGGTTCTAACCTGTTGCCT (site CCGATCACTAG) | 1.14
11 | CCGATCACTTGGGTTCTAACCTGTTGCCT (site CGTATCACTAG) | 0.034
12 | CCGCAGACTTGGGTTCTAACCTGTTGCTT (site CCGCAGACTAA) | 1.33
13 | CCGCAGACTTGGGTTCTAACCTGTTGCTT (site CCGCGGACTAA) | 0.013
14 | CCGCCCTCTTGGGTTCTAACCTGTTGCTT (site CAGCCCTCTTA) | 0.586
15 | CCGCCCTCTTGGGTTCTAACCTGTTGCTT (site CCGCCCTCTAA) | 0.291
16 | CCGCGCACTTGGGTTCTAACCTGTTGCCT (site CCGCGCACTAG) | 0.397
17 | CCGCGCACTTGGGTTCTAACCTGTTGCCT (site CCGCGCTCTAG) | 0.206
18 | CCGCGTGCTTGGGTTCTAACCTGTTGCCT (site CAGCGTGCTAG) | 0.161
19 | CCGCGTGCTTGGGTTCTAACCTGTTGCCT (site CCGCGTGCTAG) | 0.0933
20 | CCGCGTGCTTGGGTTCTAACCTGTTGCCT (site CGGCGTGCTAG) | 0.523
21 | CCGCGTGCTTGGGTTCTAACCTGTTGCCT (site CTGCGTGCTAG) | 0.0444
22 | CCGCTACCTTGGGTTCTAACCTGTTGCGG (site CCGCTACCTCC) | 0.474

Row | Sequence | recombinant barcode read abundance (log10)
23 | CCGCTACCTTGGGTTCTAACCTGTTGCGG (site TCGCTAGCTCC) | 0.0965
24 | CCGTATGCTTGGGTTCTAACCTGTTGCCT (site CCGAATGCTAG) | 0.234
25 | CCGTATGCTTGGGTTCTAACCTGTTGCCT (site CCGCATGCTAG) | 0.104
26 | CCGTATGCTTGGGTTCTAACCTGTTGCCT (site CCGGATGCTAG) | 0.0205
27 | CCGTATGCTTGGGTTCTAACCTGTTGCCT (site CCGTATGCTAG) | 0.168
28 | CCGTCACCTTGGGTTCTAACCTGTTGCCT (site ACGTCACCTAG) | 0.264
29 | CCGTCACCTTGGGTTCTAACCTGTTGCCT (site CCGTCACCTAG) | 1.29
30 | CCGTCACCTTGGGTTCTAACCTGTTGCCT (site GCGTCACCTAG) | 0.0965
31 | CCGTCACCTTGGGTTCTAACCTGTTGCCT (site TCGTCACCTAG) | 0.0881
32 | CCGTCCTCTTGGGTTCTAACCTGTTGCTG (site CAGTCCTCTCA) | 0.0234
33 | CCGTCCTCTTGGGTTCTAACCTGTTGCTG (site CCGTCCTCTCA) | 1.01
34 | CCGTCGACTTGGGTTCTAACCTGTTGCCT (site ACGTCCACTAG) | 0.0141
35 | CCGTCGACTTGGGTTCTAACCTGTTGCCT (site CCGTCGACTAG) | 0.197
36 | CCGTCTACTTGGGTTCTAACCTGTTGCTG (site CCGTCTACTAA) | 0.019
37 | CCGTCTACTTGGGTTCTAACCTGTTGCTG (site CCGTCTACTCA) | 0.38
38 | CCGTCTACTTGGGTTCTAACCTGTTGCTG (site CCGTCTACTGA) | 0.0602
39 | CCGTCTACTTGGGTTCTAACCTGTTGCTG (site CCGTCTACTTA) | 0.111
40 | CCGTGGACTTGGGTTCTAACCTGTTGCCT (site CCGTGGACTAG) | 1.75
41 | CCGTGGACTTGGGTTCTAACCTGTTGCCT (site CCGTGGCCTAA) | 0.254
42 | CCTAAGACTTGGGTTCTAACCTGTTGCCG (site CCTAAGACTAG) | 0.343
43 | CCTAAGACTTGGGTTCTAACCTGTTGCCG (site CCTAAGACTCG) | 0.263
